For the experiment, the system named is Y1 mouse adrenal tumor cells. The experiment can be described thus: dbcAMP-induced 20á-hydroxyprogesterone synthesis in Y1 cells (RIA). It counts as cell-based. Here is the method: Culture media were then changed and cells were stimulated with 1 mM dbcAMP and the treatment for 24 to 48 hours. […] The synthesis of 20-OH progesterone and progesterone in Y1 and MA-10 cell media respectively were measured by RIA (Brown et al., 1992). H295R human adrenal tumor cells were seeded in 48-well plates at 10^5 cells/well and incubated for 24 hours. […] At the end of the incubation time period, cells were treated with 1 mM dbcAMP for 48 hours. Cortisol levels in the media were determined by radioimmunoassay as previously described (Amri et al., 1996).

This is an account of results in patent US20060194815A1, “Methods and compositions for modulating serum cortisol levels” (priority 2003, published 2006).

In the case of `CC1CN(C(=O)C(Cc2c[nH]c3ccccc23)NC(=O)c2ccc([N+](=O)[O-])cc2)CCN1C(=O)C1CC1` (stereo not drawn) [SP010, N-[2-(4-cyclopropanecarbonyl-3-methyl-piperazin-1-yl)-1-(1H-indol-3-yl-methyl)-2-oxo-ethyl]-4-nitro-benzamide], the “efficacy on Y1 adrenocortical cells across concentrations” value (1, 10 and 100 iM) was “maintained the same efficacy”. In addition, the “dbcAMP-induced 20á-hydroxyprogesterone production” value (Y1 cells, 1 mM dbcAMP, increasing concentrations) was “decreased in a dose-dependent manner”. For the same compound, for the setting “even at a concentration as low as 1 μM”, the “potency compared with procaine on cAMP-corticosteroid formation” value is on record as “as potent as procaine”.
